Assay results taken from patent US8404672B2, “Substituted heterocyclic compounds” (Bristol-Meyers Squibb Company, priority 2009, dated 2013).
Where a name gives a salt, the structure may show the parent alone.

How the values were obtained:
[1] = target: T1, S1P1 (membranes from S1P1/CHO cells) (Homo sapiens, UniProt P21453); test: Method A: Receptor [35S] GTPγS Binding Assay, S1P1; type: biochemical; conditions: for GTPγS S1P3/S1P1 (Method A): ratio of GTPγS S1P3 EC50 to GTPγS S1P1 EC50, Method A; for EC50: Method A, S1P1/CHO membranes
T1 construct: expressed in transfected cells; host or cells: S1P1/CHO cells
T1 sequence (P21453 whole entry): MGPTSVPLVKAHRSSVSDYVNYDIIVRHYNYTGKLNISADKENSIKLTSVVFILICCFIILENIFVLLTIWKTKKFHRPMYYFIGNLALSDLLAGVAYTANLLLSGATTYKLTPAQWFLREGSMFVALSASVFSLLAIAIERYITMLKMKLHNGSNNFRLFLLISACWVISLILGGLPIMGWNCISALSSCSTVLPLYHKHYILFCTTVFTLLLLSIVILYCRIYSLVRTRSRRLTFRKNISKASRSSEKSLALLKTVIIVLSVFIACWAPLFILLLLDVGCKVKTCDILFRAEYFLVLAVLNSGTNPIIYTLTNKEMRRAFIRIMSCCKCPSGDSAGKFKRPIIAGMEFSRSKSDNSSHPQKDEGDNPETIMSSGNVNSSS
Experimental: (§1) Method A: Receptor [35S] GTPγS Binding Assays
(§2) Compounds were loaded in a 384 Falcon v-bottom plate (0.5 μl/well in a 3-fold dilution). Membranes prepared from S1P1/CHO cells or EDG3-Gal5-bla HEK293T cells were added to the compound plate (40 μl/well, final protein 3 μg/well) with MULTIDROP®. [^35S]GTP (1250 Ci/mmol, Perkin Elmer) was diluted in assay buffer: 20 mM HEPES, pH 7.5, 10 mM MgCl2, 150 mM NaCl, 1 mM EGTA, 1 mM DTT, 10 μM GDP, 0.1% fatty acid free BSA, and 10 μg/ml Saponin to 0.4 nM. 40 μl of the [^35S] GTP solution was added to the compound plate with a final concentration of 0.2 nM. The reaction was kept at room temperature for 45 min. At the end of incubation, all the mixtures in the compound plate were transferred to a 384 well FB filter plates via GPCR robot system. The filter plate was washed with water 4 times by using the modified manifold Embla plate washer and dried at 60° C. for 45 min. 30 μA of MicroScint 20 scintillation fluid was added to each well for counting at Packard TOPCOUNT®. EC50 is defined as the agonist concentration that corresponds to 50% of the Ymax (maximal response) obtained for each individual compound tested.
(§3) Compounds of the present invention and Comparative Compound A were tested in the Receptor [35S] GTPγS Binding Assays (Method A) and Receptor [35S] In some instances, the value is an average of multiple experiments where N is the number of experiments conducted that provided satisfactory dose response curves. When more than one batch of an example was tested, the value presented is from a batch which allowed a comparison of GTPγS S1P1 and GTPγS S1P3 in which the most number of experiments were performed. Preferably, the same batch was examined in Method A and Method B. Data was not averaged across different batches of an example compound.

[2] = target: T2, S1P1 (membranes from S1P1 transfected CHO cells) (Homo sapiens, UniProt P21453); test: Method B: Receptor [35S] GTPγS SPA Binding Assay, S1P1; type: biochemical; conditions: for GTPγS S1P3/S1P1 (Method B): ratio of GTPγS S1P3 EC50 to GTPγS S1P1 EC50, Method B; for EC50: Method B SPA, S1P1 transfected CHO membranes
T2 construct: expressed in transfected cells; host or cells: CHO cells
T2 sequence (P21453 whole entry): as above
Experimental: (§4) Method B: Receptor [35S] GTPγS SPA Binding Assays
(§5) Membranes prepared from S1P1 or S1P3 transfected CHO cells ([…]) were incubated in 96-well white plates (CORNING® 3693) with test compounds diluted in DMSO, in 50 μl of reaction mixture containing 7.5 μl WGA-PVT beads (20 mg/ml), and 5 μM GDP, 20 mM HEPES pH 7.4, 100 mM NaCl, 1 mM EDTA, 5 mM MgCl2, 10 μg/ml saponin, 0.1% BSA, and 1 μM leupeptin. The assay was initiated with the addition of […] of 0.2 nM [^35S]-GTPγS (1250 Ci/mmol; NEN) in assay buffer. After 90 min incubation at room temperature, spin the plate at 1000 rpm for 5 min. The bound radionuclides were measured at TOPCOUNT®, expressed as % response relative to S1P (1 μM) activation. Data was analyzed using the four parameter logistic equation in Excel. The four parameters in the equation, Y=A+((B−A)/(1+((EC50/X)^D))), are described as following: A is the Y value (agonist activity) at the bottom plateau; B is the Y value at the top plateau; EC50 is the X value (agonist concentration) when the response is halfway between bottom and top; D is Hill coefficient. Curves were not generated for compounds having Ymax values were below 50%.
as §3

[3] = target: T3, human S1P1 (Homo sapiens, UniProt P21453); test: S1P1 Binding Assay (33P-S1P radioligand competition, CHO cell membranes); conditions: membranes from CHO cells expressing human S1P1; 0.03 nM 33P-S1P; 60 min room temperature
T3 construct: expressed in transfected cells; host or cells: CHO cells
T3 sequence (P21453 whole entry): as above
Experimental: Membranes were prepared from CHO cells expressing human S1P1. Cells were dissociated in buffer containing 20 mM HEPES, pH 7.5, 50 mM NaCl, 2 mM EDTA and Protease Inhibitor cocktail (Roche), and disrupted on ice using the Polytron homogenizer. The homogenate was centrifuged at 20,000 rpm (48,000 g) and the supernatant was discarded. The membrane pellets were resuspended in buffer containing 50 mM HEPES, pH 7.5, 100 mM NaCl, 1 mM MgCl2, 2 mM EDTA and stored in aliquots at −80° C. after protein concentration determination.
Membranes ([…]) and 0.03 nM final concentration of ^33P—S1P ligand (1 mCi/ml, American Radiolabeled Chemicals) were added to the compound plates. Binding was performed for 60 min at room temperature, terminated by collecting the membranes onto GF/B filter plates, and radioactivity was measured by TOPCOUNT®. The competition data of the test compounds over a range of concentrations was plotted as percentage inhibition of radioligand specific binding. The IC50 is defined as the concentration of competing ligand needed to reduce specific binding by 50%.
Compounds of the present invention and Comparative Compound A were tested in the S1P1 binding assay described hereinabove and the results rounded to two digits, shown in Table A were obtained. In some instances, the value is an average of multiple experiments where N is the number of experiments conducted that provided satisfactory dose response curves. When more than one batch of an example was tested, the value presented is from the batch which allowed a comparison of GTPγS S1P1 and GTPγS S1P3 in Method A (Data shown in Table B). Data was not averaged across different batches of an example compound.

[4] = target: T4, S1P3 (membranes from S1P3 transfected CHO cells) (Homo sapiens, UniProt Q99500); test: Method B: Receptor [35S] GTPγS SPA Binding Assay, S1P3; type: biochemical
T4 construct: expressed in transfected cells; host or cells: CHO cells
T4 sequence (Q99500 whole entry): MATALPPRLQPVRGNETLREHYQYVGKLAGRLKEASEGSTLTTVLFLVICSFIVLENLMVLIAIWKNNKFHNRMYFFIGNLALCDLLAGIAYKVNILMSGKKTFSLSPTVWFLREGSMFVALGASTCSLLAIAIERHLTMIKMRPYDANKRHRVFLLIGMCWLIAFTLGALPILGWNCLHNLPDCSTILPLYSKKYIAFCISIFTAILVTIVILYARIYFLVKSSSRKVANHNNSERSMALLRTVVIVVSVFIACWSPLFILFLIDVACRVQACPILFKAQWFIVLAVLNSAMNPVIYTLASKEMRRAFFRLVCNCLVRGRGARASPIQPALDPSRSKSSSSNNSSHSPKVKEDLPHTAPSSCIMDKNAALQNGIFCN
Experimental: as §4, §5, §3

[5] = target: T5, S1P3 (membranes from EDG3-Gal5-bla HEK293T cells) (Homo sapiens, UniProt Q99500); test: Method A: Receptor [35S] GTPγS Binding Assay, S1P3; type: biochemical
T5 construct: expressed in transfected cells; host or cells: EDG3-Gal5-bla HEK293T cells
T5 sequence (Q99500 whole entry): as above
Experimental: as §1, §2, §3

Structure (SMILES) | GTPγS S1P3/S1P1 (Method A) [1] | GTPγS S1P3/S1P1 (Method B) [2] | IC50 [3] [nM] | EC50 [1] [nM] | EC50 [2] [nM] | EC50 [4] [nM] | EC50 [5] [nM]
O=C(O)C1CN(Cc2ccc(-c3noc(-c4cc(-c5ccccc5)c(C(F)(F)F)s4)n3)cc2)C1 [Comp. A, 1-(4-(5-(4-Phenyl-5-(trifluoromethyl)thiophen-2-yl)-1,2,4-oxadiazol-3-yl)benzyl)azetidine-3-carboxylic acid, reference compound] | 1.2 | 78 |  |  |  |  | 
O=C(O)C1CN(Cc2ccc(-c3noc(-c4noc(-c5ccccn5)c4C(F)(F)F)n3)cc2)C1 [Example 2, 1-(4-(5-(5-(Pyridin-2-yl)-4-(trifluoromethyl)isoxazol-3-yl)-1,2,4-oxadiazol-3-yl)benzyl)azetidine-3-carboxylic acid] |  | 13,000 | 0.39 | 4.5 | 0.34 | 4400 | 
CCCc1c(-c2nc(-c3ccc(CN4CC(C(=O)O)C4)cc3)no2)noc1-c1ccccn1 [Example 3, 1-(4-(5-(4-Propyl-5-(pyridin-2-yl)isoxazol-3-yl)-1,2,4-oxadiazol-3-yl)benzyl)azetidine-3-carboxylic acid, 2,2,2-trifluoroacetic acid salt] | 2,600 | 430 | 0.021 | 0.82 | 0.65 | 280 | 2100
CC(C)c1c(-c2nc(-c3ccc(CN4CC(C(=O)O)C4)cc3)no2)noc1-c1ccccn1 [Example 4, 1-(4-(5-(4-Isopropyl-5-(pyridin-2-yl)isoxazol-3-yl)-1,2,4-oxadiazol-3-yl)benzyl)azetidine-3-carboxylate, 2,2,2-trifluoroacetic acid salt] | 179 |  | 0.18 | 39 | 1 |  | 7000

More lines, now with the values ahead:

GTPγS S1P3/S1P1 (Method A) [1] | GTPγS S1P3/S1P1 (Method B) [2] | IC50 [3] [nM] | EC50 [1] [nM] | EC50 [2] [nM] | EC50 [4] [nM] | EC50 [5] [nM] | Structure (SMILES)
513 |  | 0.051 | 3.7 | 0.61 |  | 1900 | CCc1c(-c2nc(-c3ccc(CN4CC(C(=O)O)C4)cc3)no2)noc1-c1ccccn1 [Example 5, 1-(4-(5-(4-Ethyl-5-(pyridin-2-yl)isoxazol-3-yl)-1,2,4-oxadiazol-3-yl)benzyl)-azetidine-3-carboxylic acid, 2,2,2-trifluoroacetic acid salt]
 | 5,200 | 0.019 |  | 0.082 | 430 |  | CCCc1c(-c2ccccn2)noc1-c1nc(-c2ccc(CN3CC(C(=O)O)C3)cc2)no1 [Example 6, 1-(4-(5-(4-Propyl-3-(pyridin-2-yl)isoxazol-5-yl)-1,2,4-oxadiazol-3-yl)benzyl)-azetidine-3-carboxylic acid, 2,2,2-trifluoroacetic acid salt]
5,800 |  | 0.53 | 3.3 |  |  | 19000 | COC(=O)c1c(-c2ccccn2)noc1-c1nc(-c2ccc(CN3CC(C(=O)O)C3)cc2)no1 [Example 7, 1-(4-(5-(4-(Methoxycarbonyl)-3-(pyridin-2-yl)isoxazol-5-yl)-1,2,4-oxadiazol-3-yl)benzyl)azetidine-3-carboxylic acid]
5.1 |  | 6.5 | 450 | 68 |  | 2300 | O=C(O)C1CN(Cc2ccc(-c3noc(-c4cc(-c5ccccn5)no4)n3)cc2)C1 [Example 8]
